Reference: ChEMBL document CHEMBL1201862, “PubChem BioAssay data set” (2004)
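The compound was tested at five concentrations on cells cultured in 96-well plates, with a 48-hour exposure period. Abbreviation: GI50, concentration required for 50% inhibition of growth.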 The source made the active and inactive calls. No stated cut-off is given here; in the data, active = GI50 up to about 1.1 µM and inactive = higher.

Assays:
Experiment in all cases: NCI tumour cell line growth inhibition, 48 h
SK-MEL-2 = system: SK-MEL-2
SK-OV-3 = system: SK-OV-3
NCI-H23 = system: NCI-H23
CAKI-1 = system: CAKI-1
SF-295 = system: SF-295
MOLT-4 = system: MOLT-4
HCC 2998 = system: HCC 2998
K562 = system: K562
LOX IMVI = system: LOX IMVI
SR = system: SR
UACC-62 = system: UACC-62
SK-MEL-5 = system: SK-MEL-5
MCF7 = system: MCF7
SF-539 = system: SF-539
Hs-578T = system: Hs-578T
CCRF-CEM = system: CCRF-CEM
SNB-75 = system: SNB-75
HOP-62 = system: HOP-62
TK-10 = system: TK-10
Malme-3M = system: Malme-3M

Measured: GI50

O=C1NC(=O)C(CCC(=O)c2cccc3ccccc23)C(=O)N1
inactive: SK-MEL-2 > 100 µM | SK-OV-3 > 100 µM | NCI-H23 > 100 µM | CAKI-1 > 100 µM | SF-295 60.1 µM | MOLT-4 > 100 µM | HCC 2998 > 100 µM | K562 > 100 µM | LOX IMVI > 100 µM | SR 85.3 µM | UACC-62 > 100 µM | SK-MEL-5 > 100 µM | MCF7 > 100 µM | SF-539 > 100 µM | Hs-578T > 100 µM | CCRF-CEM > 10 µM | SNB-75 26.4 µM

Cc1cc2ccccc2n1CC(=O)N1CCCC1
inactive: SK-MEL-2 > 100 µM | SK-OV-3 > 100 µM | HOP-62 > 100 µM | NCI-H23 > 100 µM | MOLT-4 > 100 µM | HCC 2998 > 100 µM | K562 > 100 µM | LOX IMVI > 100 µM | SR > 100 µM | UACC-62 > 100 µM | SK-MEL-5 > 100 µM | MCF7 > 100 µM | SF-539 > 100 µM | Hs-578T > 100 µM | TK-10 > 100 µM | CCRF-CEM > 100 µM | SNB-75 > 100 µM | Malme-3M > 100 µM

COC(=O)c1ccccc1/C=C1\Cc2c(C)cc(C)cc2C1=O
inactive: SK-MEL-2 > 100 µM | HOP-62 > 100 µM | CAKI-1 > 100 µM | SF-295 > 100 µM | MOLT-4 > 100 µM | HCC 2998 > 100 µM | K562 > 100 µM | LOX IMVI > 100 µM | SR > 100 µM | UACC-62 > 100 µM | SK-MEL-5 > 100 µM | MCF7 > 100 µM | SF-539 > 100 µM | Hs-578T > 100 µM | TK-10 > 100 µM | CCRF-CEM > 100 µM | SNB-75 > 100 µM | Malme-3M > 100 µM

CCCCN1C(=O)C2Cc3c([nH]c4ccccc34)C(c3cccc(O)c3)N2C1=O (configuration not stated)
inactive: SK-MEL-2 18 µM | SK-OV-3 16.1 µM | HOP-62 18.5 µM | NCI-H23 20.3 µM | CAKI-1 18.7 µM | SF-295 17.4 µM | MOLT-4 26.7 µM | HCC 2998 18.9 µM | K562 20.2 µM | LOX IMVI 18 µM | SR 20.5 µM | UACC-62 17.7 µM | SK-MEL-5 17 µM | MCF7 18.3 µM | SF-539 18.8 µM | Hs-578T 27.9 µM | TK-10 18.3 µM | CCRF-CEM 18.2 µM | SNB-75 18.5 µM
